Measurements: patent publication US20240398749A1, “INHALABLE PROTEASE INHIBITORS FOR USE IN THE PREVENTION AND/OR TREATMENT OF FIBROTIC AUTOIMMUNE OR INFLAMMATORY LUNG DISEASES” (priority 2021, published 2024)
Where “and” joins values, the source holds several entries; their conditions need not be identical. Equal entries are not always repeated. Where two headings read alike, the source gives them in different places.

What was measured:
IL-17 release = IL-17 release from human mononuclear cells in whole blood stimulated with cytokines; type: cell-based
[1] = test system: THP1 cells (macrophage-like cell line); assay: IL-8 release from stimulated THP1 cells; type: cell-based; settings: IL-1 or TNF/IL-1 stimulated cells, 24 hours
Description: This stimulation corresponds to a pro-inflammatory response. The supernatants were then removed, and the IL-8 release was measured.

[2] = cited from earlier work
[3] = test system: Salmonella typhimurium strains TA 1535, TA 1537, TA 98, TA 100, and the Escherichia coli strain WP2 uvrA; assay: Reverse mutation assay (plate incorporation test)
pseudovirus = assay: Pseudovirus inoculation of human ACE2 transgenic mice, bioluminescence assay; type: in vivo; settings: pre-treated via tail vein injection 2 days prior to virus inoculation; 1 day post infection
Th17 differentiation = settings: rats; cited from earlier work
SARS-CoV-2 [4] = type: cell-based; settings: A549, MOI 5, 100 μM
physchem = settings: organic solvent or mixture
SARS-CoV-2 [5] = settings: E64d added to the TMPRSS2 inhibitor Camostat; cited from earlier work
A549 cells [6] = assay: IL-8 release from A549 cells, spontaneous or TGFbeta-induced; type: cell-based; settings: TGFbeta stimulation, 24 h, 10 μg/ml E64D
[7] = test system: human peripheral blood cells (PBI); assay: Chromosome aberration test
Mouse-Coronavirus = Mouse-Coronavirus model systems; cited from earlier work
fibroblasts = type: cell-based
Vero e6-cells = settings: concentrations up to 100 μM
A549 cells [8] = type: cell-based
rats = assay: Toxicology study, 14-day inhalational applications; settings: inhalation on 14 consecutive days
[9] = Nebulizer test / cascade impactor measurements with M-neb dose+; type: physicochemical
Wistar rats = assay: Dose range finding study, 14 days nose-only inhalation; type: in vivo; settings: for lung with a spongy consistency (animals affected): females
Excerpt: The purpose of this study was to perform a dose range finding (DRF) study using 14 days nose-only-inhaled Aloxistatin in rats. Possible side effects of Aloxistatin were characterized based on clinical observations, body weight, hematology, clinical pathology, macroscopic examination and histopathology of selected organs (respiratory tract, heart, kidneys, liver and spleen). Additionally, the setup of chemical analysis method for toxicokinetic analysis was established.
For the study, 64 Wistar rats [Crl:Wistar(Han)] received the test item at doses of 22.67, 68 or 227 μg/kg bw for 14 consecutive days via nose-only inhalation. Ethanol ≥96% was used as vehicle. Animals of the main study were sacrificed on […].
All animals were clinically observed in their cages at least once a day. Individual body weights were determined twice weekly. Blood samples for hematology and clinical chemistry were withdrawn before the exposure and on day 14. Necropsy, including a macroscopic evaluation of selected organs, was performed on day 15 or day 29 followed by histopathology of preselected organs. All macroscopic changes were recorded. Blood and lung sampling for setup of chemical analysis method for toxicokinetic analysis was performed on day 1 and 15 and upon sacrifice (day 2 and 15), respectively.

Th17-lymphocytes = assay: Measurement of Th17-lymphocytes by flow cytometry; type: cell-based, human
SARS-CoV-2 [10] = type: cell-based; settings: HEK293-ACE2, MOI 5, 100 μM
[11] = in vivo, po; cited from earlier work
mice = settings: cited from earlier work
[12] = 22.67, 68 or 227 μg/kg bw, 14 days nose-only inhalation

CCOC(=O)[C@H]1O[C@@H]1C(=O)N[C@@H](CC(C)C)C(=O)NCCC(C)C [E64D, aloxistatin]
release of the cytokine IL-17 (IL-17 release): can be inhibited | IL-8 release [1]: clearly lowers the IL-8 release | serum AST and ALT activities ([2]; rat, in vivo): rose dramatically | time of minimum liver GSH level after administration ([2]; rat, in vivo): 5 h | liver glutathion (GSH) levels ([2]; rats): obvious drop | precipitation in the overlay agar on the incubated agar plates [3]: 5000 μg/plate | toxic effects (reduction in the number of revertants) ([3]; all strains, with and without metabolic activation, up to 5000 μg/plate): No toxic effects | increase in revertant colony numbers ([3]; five tester strains, any dose level, with and without S9 mix): No substantial increase | mutagenicity ([3]; reverse mutation assay conclusion): non-mutagenic | bioluminescence activity (virus replication) (pseudovirus): decrease in bioluminescence activity | Th17 differentiation (Th17 differentiation): suppresses Th17 differentiation in a dose-dependent manner | cell lysis (SARS-CoV-2 [4]): effectively inhibited | virus replication of SARS-CoV-2 (SARS-CoV-2 [4]): effectively inhibited | solubility (physchem): ≤ 68000 µg/mL and ≤ 199000 µM | inhibition of virus entry (SARS-CoV-2 [5]): additive efficacy | TGFbeta-induced IL-8 release (A549 cells [6]): block the induction almost completely | aberrant cells (gaps excluded) ([7]; after 4 h of treatment, both without and with S9-mix): only one aberrant cell | structural chromosome aberrations ([7]; treated PBL): nearly complete absence of structural chromosome aberrations | virus replication (Mouse-Coronavirus): effective inhibition of virus replication | IL-17 induced proliferation and differentiation of fibroblasts (fibroblasts): inhibiting the IL-17 induced proliferation and differentiation of fibroblasts | cytotoxicity (Vero e6-cells): non-toxic | TGF-beta induced release of alpha-smooth muscle actin (aSMA) (A549 cells [8]): inhibits the TGF-beta induced release | TGF-beta induced release of collagen 1 (A549 cells [8]): inhibits the TGF-beta induced release | TGFbeta-induced collagen production (A549 cells [8]): lowers the TGFbeta-induced collagen production of A549 in a dose-dependent manner | TGFbeta-induced collagen release at highest dose (A549 cells [8]): almost goes back to the initial value | No-Observed-Adverse-Effect-Level (NOAEL), pulmonary dose (rats): 413 μg/kg bw | aerosol output (fraction of actually inhaled E64d) ([9]; 0.34 mg/ml solution): 80% | aerosol output (fraction of actually inhaled E64d) ([9]; 34 mg/ml solution): 63% | fine particle fraction (<5 μm) ([9]; all concentrations tested (0.34, 3.4 and 34 mg/ml)): > 95% | aerosol release rate ([9]; concentration of the solution 340 ug/ml): 0.108 mg/min | aerosol release rate ([9]; concentration of the solution 3.4 mg/ml): 1 mg/min | aerosol release rate ([9]; concentration of the solution 34 mg/ml): 8.7 mg/min | cumulative active compound deposition ([9]; particle size distribution about 0.5-3 μm, impactor assays): > 99% | body weight (Wistar rats; [12]): no statistical differences between the groups | changes in clinical chemistry parameters (Wistar rats; [12]): considered incidental | clinical observations (Wistar rats; [12]): no clinical observations were noted | mortality (Wistar rats; [12]): No animal was found dead or killed moribund | lung with a spongy consistency (animals affected) (Wistar rats; low dose group): 1/5 | lung with a spongy consistency (animals affected) (Wistar rats; medium dose group): 1/5 | slightly enlarged lung-associated lymph nodes (animals affected) (Wistar rats; male animals, medium dose group, macroscopic examination): 2/5 | histopathological examination (Wistar rats; respiratory tract, lymph nodes, heart, kidneys, liver, spleen, after 14 days and after 14 days recovery): no treatment-related findings were detected | polarization of Th2-lymphocytes (Th17-lymphocytes): polarize Th2-lymphocytes into Th1-lymphocytes | Th1 cells (Th17-lymphocytes; co-incubation with E64D): dose-dependently up-regulates | Th17 and Th17.1 cells (Th17-lymphocytes; co-incubation with E64D): dose-dependently down-regulates | Treg lymphocytes (Th17-lymphocytes; co-incubation with E64D): upregulation of Treg lymphocytes | percentage of Th17 cells (Th17-lymphocytes; stimulation with IC-beads, with or without cytokine mix, whole blood lymphocytes and T-lymphocytes from bronchoalveolar lavage): reduces the percentage of Th17 cells | cell lysis (SARS-CoV-2 [10]): effectively inhibited | virus replication of SARS-CoV-2 (SARS-CoV-2 [10]): effectively inhibited | dose absorbed [11]: at least 60%

CC(C)C[C@H](NC(=O)[C@H]1O[C@@H]1C(=O)O)C(=O)NCCCCN=C(N)N [E64]
emphysematous changes (mice): markedly attenuated emphysematous changes
